From patent US20250134902A1, “DRUG REPURPOSING FOR DELAYED TREATMENT OF ISCHEMIC STROKE” (UNIVESRITY OF NORTH TEXAS HEALTH SCIENCE CENTER, priority 2022, published 2025) come the findings set out here.

Molecules are shown by their SMILES.

In assay [1] the target is T1, human Sigma-1 receptor (S1R) (Homo sapiens, UniProt Q99720).
T1 construct: expressed in transfected cells
As to the kind of experiment: Radioligand competition binding at Sigma-1 receptor ([3H]-(+)-pentazocine, MCF-7-hS1R). The method, then: Measuring receptor density with radioligand binding.
Measuring the ligand affinities at SIR and S2R receptors by radioligand binding. […] Binding conditions were the same as described previously for the S1R (Schetz, et al., 2007): binding buffer (Tris 50 mM, pH=8.1 at 37° C.), ice-cold wash buffer (Tris 10 mM, pH=8.1 at 0-2° C.), and incubation time (3 hrs at 37° C.) with shaking. Non-specific binding for the S1R and S2R was determined in the presence of 5 μM BD1063 and […] haloperidol, respectively. Following incubation, receptors were collected via rapid filtration through GF/C filters (Brandel, Gaithersburg, MD) followed by washing three times with 3 mL of ice-cold wash buffer. Dried filters were transferred to vials filled with 3.5 ml of scintillation fluid, and the radioactivity was quantified on a liquid scintillation analyzer (TRICARB® 2800TR) from Perkin Elmer (Saint Louis, MO). Mean values from duplicate or triplicate determinations are reported along with their associated standard error of the mean (SEM). Ki values were calculated from IC50 values using the Cheng-Prusoff equation. The concentration of membrane protein was determined using a PIERCE® BCA Protein Assay kit (Life Technologies, Grand Island, NY) following the manufacturer's protocol.
Referring to FIG. 1, the selectivity of potential S1R ligands over S2R was empirically evaluated. Human MCF-7 cells were used as the source of the S2R because these cells express the endogenous S2R (Vilner, John, et al., 1995; Wu & Bowen, 2008) but lack detectable levels of the S1R, allowing unambiguous detection of S2R activity in untransfected cells (Schetz, et al., 2007). MCF-7 cells stably expressing the cloned human S1R were used as the source of S1R.
For orientation: In a radioligand displacement assay an active substance lowers the binding of a labelled ligand.

The target of assay [2] is T2, human Sigma-2 receptor (S2R) (Homo sapiens, UniProt Q5BJF2).
T2 construct: these cells express the endogenous S2R; endogenous in cells; host or cells: untransfected human MCF-7 cells
T2 sequence (Q5BJF2 whole entry): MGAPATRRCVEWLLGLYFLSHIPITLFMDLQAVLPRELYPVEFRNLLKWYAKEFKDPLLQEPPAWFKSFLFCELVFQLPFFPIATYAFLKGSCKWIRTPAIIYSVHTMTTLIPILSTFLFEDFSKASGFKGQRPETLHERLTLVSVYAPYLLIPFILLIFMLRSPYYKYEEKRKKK
Put plainly: Radioligand competition binding at Sigma-2 receptor ([3H]-DTG, untransfected MCF-7). As to conditions: displacement of 2.5 nM [3H]DTG, untransfected MCF-7 cells; average of 2-3 experiments ± SEM; read-out: S2R affinity (Ki). The method, then: Ki values were calculated from IC50 values using the Cheng-Prusoff equation.

The subject of assay [3] is neuronal MN9D cell line. As to the kind of experiment: BDNF secretion via in situ ELISA. As to conditions: 10 μM, 24 hrs, MN9D cells; normalized to maximal response of 10 μM 4-PPBP; mean ± SEM; asterisk = significantly different from 4-PPBP. Format: cell-based. An excerpt:
Measuring BDNF secretion via in situ ELISA. […] The in situ ELISA improves on traditional ELISA by seeding BDNF-secreting cells directly into the wells pre-coated with an anti-BDNF primary antibody. BDNF secreted by these cells is immediately captured by the primary antibody, drastically increasing the sensitivity and reproducibility of the ELISA assay. Intact cells are removed […] the addition of the secondary and tertiary antibodies. The amount of BDNF secreted from the neuronal MN9D cells was quantified using an in situ ELISA assay developed using the BDNF EMAX® ImmunoAssay kit (Cat. No. G7611, Promega, Madison, WI). Briefly, a NUNC™ MAXISORP™ flat-bottom, polystyrene, 96-well immunoplate was coated for 48 hrs at 4° C. with an anti-BDNF monoclonal antibody diluted 1:1000 v/v in carbonate buffer containing 25 mM sodium bicarbonate and 25 mM sodium carbonate, pH 9.7. Unbound antibody was removed by washing 5 times with 150 μL of TBST buffer (20 mM Tris-HCl, pH7.6, 150 mM NaCl, and 0.05% (v/v) TWEEN® 20), before blocking non-specific sites first with blocking buffer for 1 hr and then with culture medium for 2 hrs. Cells were seeded at 35,000 cells per well and incubated overnight at 37° C. in a humidified CO2 incubator. The following day, the wells were replaced with fresh culture media containing either experimental compounds or vehicle controls, then incubated for an additional 24 hours. In addition, on the same plate, but in separate wells, BDNF standards were added ranging in concentration from 15.6-250 pg/mL. After 24 hrs incubation with experimental compounds, the media was aspirated and 100 μL of Dulbecco's phosphate saline (D-PBS without Ca^2+ and Mg^2+ supplemented with 5 mM EDTA) was added to each well and incubated for 15 min at 37° C. to promote cell lifting. Cells were then detached from the bottom of wells by triturating in the center and around the edges of the well. After removing all cell debris, the wells were rinsed five times with 150 μL of TBST. The plate was then incubated with 1:500 v/v diluted polyclonal anti-human BDNF antibody for 2 hrs at room temperature. This antibody was removed, and wells were washed five times with 150 μL of TBST, before incubating with 1:200 v/v diluted polyclonal Anti-IgY HRP conjugate for 2 hrs at room temperature. Wells were then washed five times with 150 μL of TBST and the remaining specifically bound polyclonal antibody was detected with the 50 μL colorimetric HRP substrate 3,3′,5,5′-Tetramethylbenzidine (TMB). The reaction was terminated with 50 μL of 1 M HCl and the color intensity was quantified by measuring the absorbance at 450 nm using a FLEXSTATION® 3 plate reader (Molecular Devices, Sunnyvale, CA). […] A one-way ANOVA with a Bonferroni multiple comparisons post-hoc analysis (P<0.05) was applied to determine significant differences between groups.
Further, BDNF secreted from MN9D cells can be detected 24 hours after treatment with S1R ligand, whereas BDNF secreted from the B104 cell line takes 7 days to be detected (Fujimoto, et al., 2012).
An in situ ELISA approach was utilized because of its improved sensitivity related to its rapid capture of secreted BDNF (Balkowiec & Katz, 2000; Dalwadi, et al., 2017). […] Values are averages of 2-10 experiments±SEM, and each experiment was performed in triplicate. Statistical significance at P<0.05 was determined by ANOVA followed by a Bonferroni's post-hoc test and are marked with an asterisk.
On the technique in general: ELISA stands for enzyme-linked immunosorbent assay.

T1 sequence (Q99720 whole entry): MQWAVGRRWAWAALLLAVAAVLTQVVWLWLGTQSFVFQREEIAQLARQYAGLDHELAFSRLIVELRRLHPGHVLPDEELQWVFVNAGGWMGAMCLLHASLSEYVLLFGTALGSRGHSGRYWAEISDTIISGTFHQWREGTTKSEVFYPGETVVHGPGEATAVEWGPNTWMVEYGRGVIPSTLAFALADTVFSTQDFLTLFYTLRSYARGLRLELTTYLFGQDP

By Ki is commonly meant a dissociation constant, usually derived from enzyme kinetics or from competition with a known ligand. Take `CCN(CC)CCOCCOC(=O)C(CC)(CC)c1ccccc1` [Oxeladin]: the “selective for S1R over S2R” value in assay [1] amounted to 9 fold. Moreover, the Ki came out at 25 ± 4.3 nM in assay [1] (displacement of 0.5 nM [3H]-(+)-pentazocine, MCF-7 cells expressing human S1R, average of 2-3 experiments ± SEM, read-out: S1R affinity (Ki)) and 148 ± 64 nM in assay [2]. Moreover, the “S2R/S1R ratio (Ki S2R/Ki S1R)” value in assay [1] (selectivity for S1R over S2R) was determined as 6. The “Efficacy of BDNF secretion” value in assay [3] came to 0.55 ± 0.04.
